According to PMC9890698 (BMC Biology, 2023):
“And” between values parts separate entries of the source, which are not always exact repeats. Identical values can stand only once.

How the values were obtained:
[1] = target: T1, Human P2Y1-R (Homo sapiens, UniProt P47900); assay: β-arrestin 2 recruitment BRET1 assay (β-arrestin 2-RLuc / P2Y1-R-Venus) in HEK293T cells; type: cell-based; settings: for MRS2179-modulated BRET: Figure 3g; for MRS2179-modulated BRET / b-arrestin 2 signaling, Ligand-modulated BRET (% of maximum MRS2179 mean value) / Ligand-modulated BRET: individual replicates; for b-arrestin 2 signaling, Ligand-modulated BRET (% of maximum MRS2179 mean value): Figure 4b; for Ligand-modulated BRET: Figure 3h, ligand 10 µM
T1 construct: expressed in transfected cells; host or cells: HEK293T/17
From the text: We assessed β-arrestin 2 recruitment to the receptor using BRET^1 assay. The assay measures the interaction between β-arrestin 2 fused to the Renilla reniformis luciferase (RLuc) energy donor and the receptor fused to fluorescent Venus energy acceptor (Fig. 3a). The recruitment of cytosolic β-arrestin 2 to the receptor at the plasma membrane in the presence of an agonist will promote a significant increase of the BRET signal compared to the basal state, reflecting the close proximity between the β-arrestin 2 energy donor and the receptor energy acceptor [22].
Human P2Y1-R (NCBI Reference Sequence: NM_002563.2) and P2Y12-R (NCBI Reference Sequence: NM_022788.3) were fused to double Myc epitope and rat AT1-R (NCBI Reference Sequence: NM_030985.4) to HA tag in N-terminus extracellular region. Alternatively, receptors were also fused to Venus tag in C-terminus intracellular region. Plasmids encoding Gαq-RLuc8, GFP2-Gγ2 and untagged Gβ1 were previously described. ADP was purchased from Sigma-Aldrich/Merck (Darmstadt, Germany). […] The Gq inhibitor (FR900359) was kindly supplied by Evi Kostenis (University of Bonn. Germany).
G protein activation and β-arrestin 2 recruitment were performed as previously described. Briefly, vectors encoding receptors, Gαq-RLuc8, GFP2-Gγ2, Gβ1, or β-arrestin 2 were transiently cotransfected into HEK293T/17 cells as indicated in the figure legends. Forty-eight hours after transfection, cells were washed and resuspended in PBS containing 0.1% (w/v) glucose at room temperature and then distributed (80 μg proteins/well) in a 96-well microplate (PerkinElmer). For G protein activation experiments (BRET^2), cells were incubated in the absence (basal BRET signal) or in the presence of ligand for 1 minute. BRET signal between RLuc8 and GFP2 was measured after addition of the luciferase substrate coelenterazine 400a (5 μM). For β-arrestin 2 recruitment (BRET^1), cells were stimulated with ligands for 5 or 15 min. BRET signal was recorded after incubation with coelenterazine h (5 μM) for 8 min. For kinetics studies, BRET signal between RLuc and Venus was recorded at 20-s intervals at basal state for the 2 first minutes and then for 5 min after ligand injection. For saturation curves (BRET^1), the expression level of Venus- or RLuc-tagged protein was determined by direct measurement of total fluorescence and luminescence respectively. Total fluorescence was first measured with an excitation filter at 485 nm and an emission filter at 520 nm. Then, the same sample was incubated for 8 minutes with 5 μM coelenterazine h and the total luminescence was measured. BRET^2 and BRET^1 readings were collected using a modified Infinite F500 (Tecan Group Ltd). The BRET^2 signal was calculated by the ratio of emission of GFP2 (510–540 nm) to RLuc8 (370–450 nm) and the BRET^1 signal by the ratio of emission of Venus (520–570 nm) to RLuc (370–480 nm). Sometimes, results are expressed as the Net BRET computed by deducting the BRET background signal (obtained in the presence of the energy donor alone) from the BRET signal (acquired from cells expressing both the energy donor and acceptor).

[2] = target: T1, Human P2Y1-R; assay: IP1 accumulation assay (HTRF) in HEK293T cells expressing P2Y1-R; type: cell-based; settings: MRS2179 10 μM, 2 h
From the text: Since Gαq protein activation is known to induce PLC activation leading to IP3 and subsequent cytosolic calcium release, we analyzed the constitutive Gαq-dependent P2Y1-R signaling by quantifying intracellular inositol monophosphate (IP1) using a monoclonal antibody-based competitive ELISA. IP1 is a downstream metabolite of IP3 that accumulates in cells following Gαq protein-coupled receptor activation, making it an ideal readout for Gαq protein-dependent signaling pathways.

[3] = tested on: washed murine platelets (P2Y1-R/Gαq signaling); assay: IP1 accumulation assay (HTRF) in washed murine platelets; type: cell-based, mouse; settings: MRS2179 10 μM, 2 h
Procedure: (§1) As performed in HEK293T cells, we thus quantified intracellular IP1 levels to monitor Gαq protein-dependent signaling pathways.
Platelet-rich plasma (PRP) was obtained by mixing blood with 1 volume of modified Hepes Tyrode’s buffer (137 mM NaCl, 2 mM KCl, 12 mM NaHCO3, 0.3 mM NaH2PO4, 1 mM MgCl2, 2 mM CaCl2, 5.5 mM glucose, 5 mM HEPES, and 0.35% (w/v) BSA, pH 6.7) followed by a centrifugation at 150 g for 2 min at 37 °C. Then, platelets were pelleted by centrifugation at 1000 g for 4 min, resuspended in modified Hepes Tyrode’s buffer (pH 7.4), adjusted to 3.10^8 platelets/mL in the presence of 0.02 U/mL of apyrase and 10 μM indomethacin and rested for 45 minutes at 37°C before platelet stimulation. PGI2 (0.5 μM) was added before centrifugation steps to avoid platelet activation.
(§2) Quantification of intracellular IP1 was performed using the HTRF (Homogeneous Time Resolved Fluorescence) IP1 competitive immunoassay (IP-One Tb kit. Cisbio. France) according to the manufacturer’s instructions. Briefly, 20,000 HEK293T/17 cells or 3.10^6 platelets were distributed in a 384-well white microplate (Greiner) and incubated with the indicated molecules for 30 min or 2 h at 37 °C in the presence of 50 mM of LiCl to prevent IP1 degradation. After addition of d2-labeled IP1 (acceptor) and anti-IP1-Cryptate (donor) for 1 h, the specific FRET signals were calculated by the fluorescence ratio of the acceptor and donor emission signal (665/620 nm) collected using a modified Infinite F500 (Tecan Group Ltd). Conversion of the HTRF ratio of each sample into IP1 concentrations was performed on the basis of a standard curve to determine the linear dynamic range of the assay.

[4] = tested on: washed human platelets (P2Y1-R/Gαq signaling); assay: IP1 accumulation assay (HTRF) in washed human platelets; type: cell-based; settings: for IP1 concentration (% of basal mean at 30 minutes): Fig. S4a, MRS2179 10 µM, individual replicates
Procedure: as §1
Human platelets were prepared from adult healthy volunteers free of antiplatelet or anti-inflammatory medication since at least ten days. […] After two steps of centrifugation and suspension in Tyrode’s buffer (140 mM NaCl, 5 mM KCl, 5 mM KH2PO4, 1 mM MgSO4, 10 mM HEPES, 5 mM glucose and 0.35% (w/v) BSA, pH 6,7), washed platelets were suspended in the same buffer adjusted to pH 7.4 and containing 1 mM CaCl2. The final platelet suspension was adjusted to 3.10^8 platelets/mL and rested for 45 min in the presence of 0.02 U/mL apyrase and 10 μM indomethacin at 37 °C prior experiments. PGI2 (0.5 μM) was added before centrifugation steps to avoid platelet activation.
as §2

[5] = Fig. 3g, inverse agonism on β-arrestin 2 recruitment, 15 min
[6] = β-Arrestin 2 signaling, Fig. 4b, 15 min

T1 sequence (P47900 whole entry): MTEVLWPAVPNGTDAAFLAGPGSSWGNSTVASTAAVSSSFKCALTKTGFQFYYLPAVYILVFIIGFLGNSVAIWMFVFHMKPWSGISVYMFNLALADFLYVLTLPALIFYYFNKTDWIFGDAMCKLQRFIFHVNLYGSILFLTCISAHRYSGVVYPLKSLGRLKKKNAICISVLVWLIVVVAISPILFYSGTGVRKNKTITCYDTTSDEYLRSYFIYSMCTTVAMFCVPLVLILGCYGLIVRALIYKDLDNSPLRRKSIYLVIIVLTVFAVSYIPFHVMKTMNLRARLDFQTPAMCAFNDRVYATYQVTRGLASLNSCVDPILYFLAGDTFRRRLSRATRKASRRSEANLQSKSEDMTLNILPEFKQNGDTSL

Compound: CNc1ncnc2c1ncn2[C@H]1C[C@H](OP(=O)(O)O)[C@@H](COP(=O)(O)O)O1 [MRS2179]
- Effect on β-arrestin 2 recruitment at decreased (low) P2Y1-R expression ([1]; 10 μM, 15 min, decreasing amounts of P2Y1-R-Venus vector, result in words): loss of the inverse agonist efficacy
- Maximal efficacy (Emax), MRS2179-modulated BRET ([1]; Fig. 3g, 15 min stimulation, difference in BRET signal with and without ligand): -0.1192 ± 0.007029
- EC50 [1, 5]: 4.56 µM
- pEC50 ± s.e.m. [1, 5]: 5.341 ± 0.1565
- MRS2179-modulated BRET ([1]; [MRS2179] 1.00E-04 M): -0.1343 and -0.1251 and -0.1075 and -0.1104 and -0.1004 and -0.1271
- MRS2179-modulated BRET ([1]; [MRS2179] 1.00E-05 M): -0.08399 and -0.08788 and -0.08039 and -0.09033 and -0.07645 and -0.09139
- MRS2179-modulated BRET ([1]; [MRS2179] 1.00E-06 M): -0.02625 and -0.04054 and -0.04836 and -0.05476 and -0.05132 and -0.07031
- MRS2179-modulated BRET ([1]; [MRS2179] 1.00E-07 M): -0.0171 and -0.02456 and -0.02615 and -0.04428 and -0.0209 and -0.07223
- MRS2179-modulated BRET ([1]; [MRS2179] 1.00E-08 M): -0.003323 and -0.0198 and -0.01307 and -0.01788 and -0.04276 and -0.0269
- MRS2179-modulated BRET ([1]; [MRS2179] 1.00E-09 M): -0.00593 and -0.03381 and -0.01728 and -0.01928 and -0.03943 and -0.05623
- MRS2179-modulated BRET ([1]; [MRS2179] 1.00E-10 M): -0.003915 and -0.01627 and -0.01217 and -0.01765 and -0.03594 and -0.03393
- b-arrestin 2 signaling, Ligand-modulated BRET (% of maximum MRS2179 mean value) ([1]; [Ligand] 1.00E-04 M): -103.593 % of maximum MRS2179 mean value and -98.5011 % of maximum MRS2179 mean value and -96.2574 % of maximum MRS2179 mean value and -88.0215 % of maximum MRS2179 mean value and -113.627 % of maximum MRS2179 mean value
- b-arrestin 2 signaling, Ligand-modulated BRET (% of maximum MRS2179 mean value) ([1]; [Ligand] 1.00E-05 M): -60.9526 % of maximum MRS2179 mean value and -65.9951 % of maximum MRS2179 mean value and -71.6134 % of maximum MRS2179 mean value and -73.8216 % of maximum MRS2179 mean value and -88.9449 % of maximum MRS2179 mean value
- b-arrestin 2 signaling, Ligand-modulated BRET (% of maximum MRS2179 mean value) ([1]; [Ligand] 1.00E-06 M): -20.802 % of maximum MRS2179 mean value and -20.2455 % of maximum MRS2179 mean value and -36.1127 % of maximum MRS2179 mean value and -36.3804 % of maximum MRS2179 mean value and -49.6506 % of maximum MRS2179 mean value
- b-arrestin 2 signaling, Ligand-modulated BRET (% of maximum MRS2179 mean value) ([1]; [Ligand] 1.00E-07 M): -19.7613 % of maximum MRS2179 mean value and -27.0869 % of maximum MRS2179 mean value and -32.4514 % of maximum MRS2179 mean value and -43.962 % of maximum MRS2179 mean value and -16.0925 % of maximum MRS2179 mean value
- b-arrestin 2 signaling, Ligand-modulated BRET (% of maximum MRS2179 mean value) ([1]; [Ligand] 1.00E-08 M): -3.302 % of maximum MRS2179 mean value and 12.7459 % of maximum MRS2179 mean value and -20.5003 % of maximum MRS2179 mean value and -35.6867 % of maximum MRS2179 mean value and -12.0698 % of maximum MRS2179 mean value
- b-arrestin 2 signaling, Ligand-modulated BRET (% of maximum MRS2179 mean value) ([1]; [Ligand] 1.00E-09 M): -20.2543 % of maximum MRS2179 mean value and -2.0253 % of maximum MRS2179 mean value and -34.1131 % of maximum MRS2179 mean value and -19.5954 % of maximum MRS2179 mean value and -10.4994 % of maximum MRS2179 mean value
- b-arrestin 2 signaling, Ligand-modulated BRET (% of maximum MRS2179 mean value) ([1]; [Ligand] 1.00E-10 M): -0.05365 % of maximum MRS2179 mean value and -19.3587 % of maximum MRS2179 mean value and -11.2009 % of maximum MRS2179 mean value and -4.28 % of maximum MRS2179 mean value and -21.5173 % of maximum MRS2179 mean value
- Ligand-modulated BRET ([1]; 0.1µg P2Y1-R plasmid): -0.007776 and -0.009026 and 0.006633 and -0.01036 and -0.001083
- Ligand-modulated BRET ([1]; 1µg P2Y1-R plasmid): -0.04239 and -0.06101 and -0.06001 and -0.03815 and -0.06277
- Ligand-modulated BRET ([1]; 4µg P2Y1-R plasmid): -0.06559 and -0.09192 and -0.04789 and -0.08727 and -0.06156
- Effect on β-arrestin 2 recruitment / BRET signal between P2Y1-R-Venus and β-arrestin 2-RLuc ([1]; HEK293T cells, high P2Y1-R expression, result in words): significantly decreased the BRET signal
- EC50 [1, 6]: 5.05 µM
- pEC50 ± s.e.m. [1, 6]: 5.296 ± 0.153
- Effect on IP1 production ([2]; ADP 100 μM, Gq inhibitor 100 nM, result in words): strongly inhibited
- IP1 concentration ([2]; P2Y1-R): 323.411 nM and 417.936 nM and 377.702 nM and 245.513 nM and 385.824 nM
- IP1 concentration (% matched basal values) ([3]; murine platelets, individual mice): 42.6495 % matched basal values and 45.455 % matched basal values and 38.903 % matched basal values and 51.5072 % matched basal values and 54.7749 % matched basal values and 40.3524 % matched basal values and 43.9466 % matched basal values and 64.234 % matched basal values and 61.4369 % matched basal values and 43.9485 % matched basal values and 57.6391 % matched basal values and 59.347 % matched basal values and 42.2435 % matched basal values
- Effect on IP1 levels ([3]; washed murine platelets, ADP 100 μM, Gq inhibitor 100 nM, apyrase 0.02 U/mL, result in words): decreased IP1 levels
- IP1 concentration (% of basal mean at 30 minutes) ([4]; 30 minutes): 61.0057 % of basal mean at 30 minutes and 99.6481 % of basal mean at 30 minutes and 82.2183 % of basal mean at 30 minutes and 56.7485 % of basal mean at 30 minutes
- IP1 concentration (% of basal mean at 30 minutes) ([4]; 2 hours): 94.0172 % of basal mean at 30 minutes and 113.32 % of basal mean at 30 minutes and 105.9 % of basal mean at 30 minutes and 70.9752 % of basal mean at 30 minutes
- IP1 concentration (% matched basal values) ([4]; human platelets, MRS2179 10 μM, 2 h, individual donors): 129.303 % matched basal values and 123.213 % matched basal values and 123.793 % matched basal values and 163.625 % matched basal values and 131.963 % matched basal values and 159.513 % matched basal values and 140.89 % matched basal values and 171.298 % matched basal values and 155.836 % matched basal values and 154.357 % matched basal values and 192.203 % matched basal values and 190.967 % matched basal values and 205.13 % matched basal values and 115.394 % matched basal values and 124.227 % matched basal values and 114.571 % matched basal values
- Effect on IP1 levels ([4]; washed human platelets, ADP 100 μM, antagonists 10 μM, Gq inhibitor 100 nM, 2 h, apyrase 0.02 U/mL, result in words): decreased IP1 levels
